What was measured:
[1] = test system: influenza virus (Strain A/Singapore); assay: Anti-HA antibody titration by inhibition of influenza virus-induced haemagglutination after subcutaneous immunization; assay type: in vivo, Balb/c mice; conditions: 5 μg of HA, in comparison with mice which received the vaccine without adjuvant (Group A)
Protocol: 5 groups of 4 Balb/c mice are immunized by 3 subcutaneous injections performed on D0, D21 and D36 with the following vaccine compositions:
Group A: 0.3 ml of diluted strain A/Singapore monovalent influenza vaccine containing 5 μg of HA in 0.3 ml of PBS,
Group B: 0.3 ml of vaccine composition obtained according to Example 2,
Group C: 0.3 ml of vaccine composition obtained according to Example 3,
Group D: 0.3 ml of vaccine composition obtained according to Example 6,
Group E: 0.3 ml of vaccine composition obtained according to Example 7.
In order to perform the assays for neutralizing antibodies, the sera of mice are sampled on D21, D36 and […], and the titration of anti-HA antibodies is performed by means of the technique of inhibition of influenza virus-induced haemagglutination.
The titres of neutralizing antibodies in the mouse sera are presented in the form of log2 of the highest dilution inducing haemagglutination inhibition.

[2] = test system: trivalent influenza vaccine comprising strain A/Texas, strain B/Panama and strain A/Beijing; assay: Tests with a trivalent influenza vaccine; assay type: in vivo
[3] = test system: strain A/Singapore monovalent influenza vaccine; assay: Immune response (HAI) as a function of the dose of DC chol; assay type: in vivo, female Balb/c mice; conditions: DC chol/DOPC liposomes, injected D0 and D28, sera D42
[4] = test system: strain A/Singapore monovalent influenza vaccine; assay: Induction of antibody isotypes IgG1 and IgG2 (ELISA) in adult mice; assay type: in vivo, 8- to 10-week-old female BALB/c adult mice; conditions: 400 μg of DC chol with DOPC
[5] = test system: strain A/Singapore monovalent influenza vaccine; assay: Induction of antibody isotypes (ELISA) in elderly mice; assay type: in vivo, 20 to 22-month-old mice; conditions: primary and secondary response
Protocol: The same experiment is carried out exactly as in Example 12 but, in this instance, the mice tested are 20 to 22-month-old mice which are more difficult to stimulate.

[6] = test system: strain A/Singapore monovalent influenza vaccine; assay: Immunization by combined subcutaneous and intranasal administration; assay type: in vivo, BALB/c mice
Protocol: Two groups of 4 BALB/c mice are immunized twice with an interval of 4 weeks with, on each occasion, the following vaccine compositions:
Group 3 (G3):—a vaccine composition of 300 μl injected subcutaneously comprising 4 μg of HA (in the form of strain A/Singapore monovalent influenza vaccine) combined with […] of DC chol (in the form of DC chol/DOPC liposomes), and
a vaccine composition of 50 μl administered intranasally comprising 0.25 μg of HA (in the form of strain A/Singapore monovalent influenza vaccine) combined with 6 μg of DC chol (in the form of DC chol/DOPC liposomes),
Group 4 (G4):—a vaccine composition of 300 μl injected subcutaneously comprising 4 μg of HA combined with 200 μg of DC chol, and
a vaccine composition of 50 μl administered intranasally comprising 0.25 μg of HA combined with 200 μg of DC chol.
The sera of the immunized mice are sampled 3 weeks after the booster administration and, for each mouse, the level of neutralizing antibodies is assayed by the HAI haemagglutination inhibition technique.

`CC(C)CCC[C@@H](C)[C@H]1CC[C@H]2[C@@H]3CC=C4C[C@@H](OC(=O)NCCN(C)C)CC[C@]4(C)[C@H]3CC[C@]12C` [DC chol, 3β-[N-(N′,N′-dimethylaminoethane)-carbamoyl]cholesterol] was tested, and the “level of anti-HA antibodies (HAI)” value [1] was “markedly higher”, the “adjuvant power with trivalent influenza vaccine” value [2] was “adjuvant power” and the “dose of DC chol at which the maximum benefit of the adjuvant effect is obtained (HAI titre)” value [3] was “above 100 μg of DC chol/dose”. The “IgG2a produced (ELISA)” value [4] was “large increase”, the “adjuvant effect on IgG1 and IgG2 produced (ELISA)” value ([4]; primary and secondary response, in comparison to aluminium hydroxide) was “adjuvant effect” and the “adjuvant effect on IgG1 and IgG2 produced (ELISA), in particular IgG2a” value [5] was “adjuvant effect”. The “number of cells secreting IgG and IgA in the lungs (ELISPOT): dose effect” value ([6]; 6 versus 200 μg of DC chol) was “identical dose effect”, the “ratio of specific IgG (or IgA) to total IgG (or IgA) in nasopharyngeal lavage fluids: dose effect” value ([6]; 6 versus 200 μg of DC chol) was “identical dose effect” and the “serum IgG measured by ELISA: dose effect” value ([6]; 6 versus 200 μg of DC chol) was “identical dose effect”. For the same compound, the “level of neutralizing antibodies (HAI): effect of the dose of DC chol” value ([6]; dose of DC chol from 6 to 200 μg, mixed subcutaneous and intranasal) was “enables the immune response to be increased” and the “level of neutralizing antibodies (HAI): adjuvant effect” value ([6]; mixed subcutaneous and intranasal administration) was “adjuvant effect”.

Source: patent US6780421B1, “Adjuvant for a vaccine composition” (priority 1997, dated 2004)
